Assay [1] has as its target T1, Delta-type opioid receptor (Homo sapiens, UniProt P41143). Briefly: Inverse agonist activity at human DOR expressed in CHO cell membranes by [35S]GTPgammaS binding assay relative to control. Format: functional.
In assay [2] the target is T1, Delta-type opioid receptor. Nature of the assay: Inverse agonist activity at human DOR expressed in CHO cell membranes by [35S]GTPgammaS binding assay. Format: functional.
The target of assay [3] is T1, Delta-type opioid receptor. Nature of the assay: Displacement of [3H]DPDPE from human DOR expressed in CHO cells. It is filed as cell-based. Background: Displacement assays read how much labelled ligand stays bound in the presence of the test substance.
In the next assay the target is Mu-type opioid receptor (Homo sapiens, UniProt P35372). Briefly: Displacement of [3H]DAMGO from human MOR expressed in CHO cells. Format: cell-based.
Sequence of Mu-type opioid receptor (P35372 whole entry): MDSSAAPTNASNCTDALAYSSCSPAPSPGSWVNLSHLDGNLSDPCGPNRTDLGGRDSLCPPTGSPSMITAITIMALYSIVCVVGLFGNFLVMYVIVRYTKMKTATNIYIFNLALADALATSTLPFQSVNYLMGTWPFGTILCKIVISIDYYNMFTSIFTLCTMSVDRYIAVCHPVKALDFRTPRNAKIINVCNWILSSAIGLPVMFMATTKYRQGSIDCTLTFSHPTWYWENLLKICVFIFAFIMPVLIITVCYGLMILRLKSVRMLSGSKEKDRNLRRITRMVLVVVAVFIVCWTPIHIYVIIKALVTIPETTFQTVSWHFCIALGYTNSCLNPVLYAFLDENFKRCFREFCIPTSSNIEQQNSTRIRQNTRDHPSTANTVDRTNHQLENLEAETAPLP
For assay [4], the target named is Kappa-type opioid receptor (Homo sapiens, UniProt P41145). Briefly: Displacement of [3H]U-69,593 from human KOR expressed in CHO cells. Format: cell-based.
Sequence of Kappa-type opioid receptor (P41145 whole entry): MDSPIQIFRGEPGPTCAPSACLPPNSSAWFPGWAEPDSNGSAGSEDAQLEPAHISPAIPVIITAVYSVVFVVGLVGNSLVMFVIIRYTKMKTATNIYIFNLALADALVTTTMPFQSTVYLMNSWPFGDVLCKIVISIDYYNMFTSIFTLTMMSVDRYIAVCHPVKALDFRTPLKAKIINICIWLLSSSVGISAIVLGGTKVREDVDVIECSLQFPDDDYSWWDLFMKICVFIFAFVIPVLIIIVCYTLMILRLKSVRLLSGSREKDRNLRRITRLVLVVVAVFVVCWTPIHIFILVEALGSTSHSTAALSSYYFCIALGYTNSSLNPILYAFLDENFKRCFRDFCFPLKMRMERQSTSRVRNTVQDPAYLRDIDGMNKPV
The species named for assay [5] is Homo sapiens. Nature of the assay: Selectivity index, ratio of Ki for human KOR to Ki for human DOR.
For assay [6], the species on record is Homo sapiens. Briefly: Selectivity index, ratio of Ki for human MOR to Ki for human DOR.

Square brackets hold non-standard residues; d marks the D form. Peptide text beside a SMILES is read from it. * marks the point of attachment. Tyr(Nα,Nα-allyl2) = C=CCN(CC=C)[C@@H](Cc1ccc(O)cc1)C(=O)*; Aib = CC(C)(N)C(=O)O Where only a bound is given, the exact number is not on record here.

T1 sequence (P41143 whole entry): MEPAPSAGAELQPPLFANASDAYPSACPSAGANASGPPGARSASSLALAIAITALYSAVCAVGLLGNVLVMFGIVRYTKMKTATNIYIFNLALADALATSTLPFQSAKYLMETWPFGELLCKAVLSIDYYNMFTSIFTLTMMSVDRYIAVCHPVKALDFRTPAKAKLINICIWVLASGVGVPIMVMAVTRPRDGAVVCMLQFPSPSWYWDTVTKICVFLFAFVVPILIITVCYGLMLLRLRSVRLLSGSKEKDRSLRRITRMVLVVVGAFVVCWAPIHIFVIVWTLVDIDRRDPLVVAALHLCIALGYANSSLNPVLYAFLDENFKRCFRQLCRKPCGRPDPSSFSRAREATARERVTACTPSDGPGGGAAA

Broadly, the Emax is the maximal effect, on the per cent scale that the assay sets. The term EC50 denotes the concentration that produces a half-maximal response. Read a low EC50 as a more potent agent. Turning to `C=CCN(CC=C)[C@@H](Cc1ccc(O)cc1)C(=O)NC(C)(C)C(=O)NC(C)(C)C(=O)N[C@@H](Cc1ccccc1)C(=O)N[C@@H](CC(C)C)C(=O)O` ({Tyr(Nα,Nα-allyl2)}-[Aib][Aib]FL-OH), the Emax in assay [1] was -100%. The compound further registered an EC50 in assay [2] of 116 nM.
In general, Ki refers to the dissociation constant of the complex between target and ligand, obtained from inhibition or displacement. A lower Ki goes with a stronger hold on the target. `Oc1ccc2c3c1O[C@H]1c4[nH]c5ccccc5c4C[C@@]4(O)[C@@H](C2)N(CC(F)(F)F)CC[C@]314`: the Emax in assay [1] is -44.8%. In addition, the results for the Ki (in assay [3]; at Mu-type opioid receptor; in assay [4]) were 134 nM, more than 1000 nM and more than 1000 nM, respectively. The compound further returned an EC50 in assay [2] of 45.5 nM.
On to `Oc1ccc2c3c1O[C@H]1c4[nH]c5ccccc5c4C[C@@]4(O)[C@@H](C2)N(CC(F)F)CC[C@]314`, for which the Emax in assay [1] is -48.6%. The Ki in assay [3] is 15.5 nM; at Mu-type opioid receptor it was more than 1000 nM; in assay [4], more than 1000 nM. In assay [2], this compound showed an EC50 of 17.2 nM.
Turning to `Oc1ccc2c3c1O[C@H]1c4[nH]c5ccccc5c4C[C@@]4(O)[C@@H](C2)N(CCF)CC[C@]314`, in assay [1], the Emax is -38.1%. Also, the Ratio Ki amounted to 204 in the assay listed under Homo sapiens [5] and 348 in the assay filed under Homo sapiens [6]. Further, the Ki in assay [3] was 1.94 nM; on Mu-type opioid receptor, 675 nM; in assay [4] it was 397 nM. This compound registered an EC50 in assay [2] of 220 nM.
Consider `Oc1ccc2c3c1O[C@H]1c4nc5ccccc5cc4C[C@@]4(O)[C@@H](C2)N(CC(F)(F)F)CC[C@]314`, for which the Ki in assay [3] was 37.8 nM; on Mu-type opioid receptor, more than 1000 nM; in assay [4], more than 1000 nM.
For `Oc1ccc2c3c1O[C@H]1c4nc5ccccc5cc4C[C@@]4(O)[C@@H](C2)N(CC2CC2)CC[C@]314`, the Emax in assay [1] worked out at 32.4%. For the same compound, the Ratio Ki in the assay filed under Homo sapiens [5] was found to be 27.1; in the assay listed under Homo sapiens [6] it was 51.1. The results for the Ki (in assay [3]; at Mu-type opioid receptor; in assay [4]) were 0.407 nM, 20.8 nM and 11 nM, respectively. Also, the midpoint of the response in assay [2], the EC50, lay at 9.78 nM.
Take `CCN1CC[C@]23c4c5ccc(O)c4O[C@H]2c2nc4ccccc4cc2C[C@@]3(O)[C@H]1C5`: the Emax in assay [1] is 41.2%. Further, the Ratio Ki in the assay filed under Homo sapiens [5] came out at 53.7; in the assay listed under Homo sapiens [6], 75.4. Also, the Ki in assay [3] turned out to be 8.89 nM; at Mu-type opioid receptor, 670 nM; in assay [4] it was 477 nM. The compound further displayed an EC50 in assay [2] of 6.71 nM.
Take `Oc1ccc2c3c1O[C@H]1c4nc5ccccc5cc4C[C@@]4(O)[C@@H](C2)N(CC(F)F)CC[C@]314`: the values for the Ki (in assay [3]; on Mu-type opioid receptor; in assay [4]) were 18.2 nM, more than 1000 nM and more than 1000 nM, respectively.
Consider `CCCN1CC[C@]23c4c5ccc(O)c4O[C@H]2c2nc4ccccc4cc2C[C@@]3(O)[C@H]1C5`, for which, in assay [1], the Emax came out at 62.4%. The results for the Ratio Ki in the assay filed under Homo sapiens [5] and in the assay listed under Homo sapiens [6] were 113 and 44.5, respectively. The values for the Ki (in assay [3]; at Mu-type opioid receptor; in assay [4]) were 2.77 nM, 123 nM and 313 nM, respectively. Besides, a half-maximal response in assay [2] (EC50) required 5.85 nM.
Turning to `CCCN1CC[C@]23c4c5ccc(O)c4O[C@H]2c2[nH]c4ccccc4c2C[C@@]3(O)[C@H]1C5`, the Ratio Ki was found to be 66.9 in the assay filed under Homo sapiens [5] and 120 in the assay listed under Homo sapiens [6]. The Ki in assay [3] turned out to be 1.11 nM; at Mu-type opioid receptor, 133 nM; in assay [4] it was 74.3 nM.
For `CCN1CC[C@]23c4c5ccc(O)c4O[C@H]2c2[nH]c4ccccc4c2C[C@@]3(O)[C@H]1C5` the same measures were 172, 291, 2.71 nM, 788 nM and 468 nM.
In the case of `Oc1ccc2c3c1O[C@H]1c4nc5ccccc5cc4C[C@@]4(O)[C@@H](C2)N(CCF)CC[C@]314`, the Emax in assay [1] came to 27.1%. In addition, the Ratio Ki in the assay filed under Homo sapiens [5] was determined as 153; in the assay listed under Homo sapiens [6], 75.7. Further, the Ki in assay [3] is 5.58 nM; on Mu-type opioid receptor it was 422 nM; in assay [4], 854 nM. The EC50 in assay [2] came to 24.7 nM.

The values are drawn from ChEMBL document CHEMBL3596130 (Bioorg Med Chem Lett, 2015).
